US10731187B2, “Recombinant strain producing O-aminobenzoate and fermentative production of aniline from renewable resources via 2-aminobenzoic acid” (Covestro Deutschland AG, priority 2014, dated 2020)

Test system: Corynebacterium glutamicum
Experiment: Small-scale fermentation (1 L fermenters, pH 7, glucose fed) with supplementation
Assay type: cell-based
Conditions: pH 7, fermenter
From the text: The results obtained in the shake flask experiments with C. glutamicum were reproduced in small-scale fermenters (FIG. 21). […]. The glucose-fed allowed the strain to grow to higher cell densities.
. This confirmed the results obtained in shake flasks (see FIG. 22). […] It was concluded that 1-dodecanol is a suitable oAB extraction solvent.
In a further experiment the concentration of oAB was increased to investigate the effect on the C. glutamicum strain. The four fermenters were hereto supplemented with 0 g/L, 15 g/L, 35 g/L and 80 g/L of oAB. […] The rest of the cultivation conditions was kept as described above. […] Cultures supplemented with 15 g/L oAB have shown an extensive lag-phase over 34-48 h before growth was recovered and cells entered the exponential phase (see FIG. 24). An oAB degradation during fermentation was again excluded by HPLC measurements of culture supernatants (data not shown).

SMILES: Nc1ccccc1C(=O)O [oAB, 2-aminobenzoic acid]
- growth (OD600) (7 g/L): prolonged lag-phase but finally same cell densities were reached
- lag-phase before growth was recovered (15 g/L oAB (ammonium salt)): 34 to 48 h
- growth (OD600) (35 g/L oAB (ammonium salt)): growth inhibition
- growth (OD600) (80 g/L oAB (ammonium salt), over 54 hours): dying (lysis) of the cells
